Data taken from ChEMBL document CHEMBL1145234, “A new synthetic analogue of thymidine, 7-(3-bromo-phenoxy)-thymidine, inhibits the proliferation of tumor cells” (Bioorg Med Chem Lett, 2005).

These molecules were tested on HeLa (assay: Inhibitory concentration against HeLa cell proliferation after 72 hours of incubation; NA means not active). Conditions: not given; call rule not given here.
Format: functional, cell-based, Homo sapiens

SMILES	IC50
O=c1ccn([C@H]2C[C@H](O)[C@@H](CO)O2)c(=O)[nH]1 [DEOXYURIDINE]	Not Active

These molecules were tested on HeLa (assay: Inhibitory concentration against HeLa cell proliferation after 72 hours of incubation). Conditions: Homo sapiens.
Format: functional, cell-based

SMILES	IC50
Cc1cn([C@H]2C[C@H](O)[C@@H](CO)O2)c(=O)[nH]c1=O [DOXRIBTIMINE]	4000 µM
Cc1ccc(OCc2cn([C@H]3C[C@H](O)[C@@H](CO)O3)c(=O)[nH]c2=O)cc1	250 µM
O=c1[nH]c(=O)n([C@H]2C[C@H](O)[C@@H](CO)O2)cc1CSc1cccc2ccccc12	500 µM
O=c1[nH]c(=O)n([C@H]2C[C@H](O)[C@@H](CO)O2)cc1COc1cccc(Br)c1	15 µM
O=c1[nH]c(=O)n([C@H]2C[C@H](O)[C@@H](CO)O2)cc1COc1ccccc1	200 µM
COc1ccc(OCc2cn([C@H]3C[C@H](O)[C@@H](CO)O3)c(=O)[nH]c2=O)cc1	200 µM
O=c1[nH]c(=O)n([C@H]2C[C@H](O)[C@@H](CO)O2)cc1COc1ccc([N+](=O)[O-])cc1	250 µM

More lines, now with the values ahead:

IC50	SMILES
50 µM	O=c1[nH]c(=O)n([C@H]2C[C@H](O)[C@@H](CO)O2)cc1COc1ccc2ccccc2c1
50 µM	O=c1[nH]c(=O)n([C@H]2C[C@H](O)[C@@H](CO)O2)cc1COc1cccc2ccccc12
25 µM	O=c1[nH]c(=O)n([C@H]2C[C@H](O)[C@@H](CO)O2)cc1COc1ccc(Br)cc1
250 µM	CCOc1ccc(OCc2cn([C@H]3C[C@H](O)[C@@H](CO)O3)c(=O)[nH]c2=O)cc1
